Measurements: ChEMBL document CHEMBL1150475, “Synthesis and biological activity of new optically active 2-oxaisocephems: 3-(N-alkylpyridinium-4-thio)methyl derivatives” (1994)
Converted amounts (≈) assume the structure as drawn.

Key:
Staphylococcus aureus [1] = test: Antibacterial activity against Staphylococcus aureus Smith.
Staphylococcus aureus [2] = test: Antibacterial activity against MRSA 5038.
Escherichia coli [3] = test: Antibacterial activity against Escherichia coli No.29
Staphylococcus aureus [4] = test: Antibacterial activity against MRSA 5129
Pseudomonas aeruginosa [5] = test: Antibacterial activity against gram- negative Pseudomonas […] ATCC 10145; format: functional
Mus musculus [6] = organism: Mus musculus; test: Antibacterial activity against mice infected with MRSA 5038 challenged with a dose of 1*10e7 cells/mouse; format: functional
Mus musculus [7] = organism: Mus musculus; test: Antibacterial activity against mice infected with Staphylococcus aureus Smith challenged with a dose of 1.32*10e7 cells/mouse; format: functional
Staphylococcus aureus [8] = test: Antibacterial activity against gram- positive Staphylococcus aureus MRSA 57; format: functional
Mus musculus [9] = organism: Mus musculus; test: Antibacterial activity against mice infected with MRSA 5129 challenged with a dose of 1.31*10e8 cells/mouse; format: functional
Mus musculus [10] = organism: Mus musculus; test: Antibacterial activity against mice infected with Escherichia coli No.29 challenged with a dose of 1.35*10e6 cells/mouse; format: functional
Escherichia coli [11] = test: Antibacterial activity against gram- negative Escherichia coli NIHJ JC-2; format: functional
Staphylococcus aureus [12] = test: Antibacterial activity against gram- positive Staphylococcus aureus FDA 209P; format: functional
Pseudomonas aeruginosa [13] = test: Antibacterial activity against gram- negative Pseudomonas aeruginosa ATCC 10145; format: functional
Mus musculus [14] = organism: Mus musculus; test: Antibacterial activity against mice infected with Escherichia coli No.29; format: functional
Staphylococcus aureus [15] = test: Antibacterial activity against Staphylococcus aureus Smith.; remark: listed apart in the source
Mus musculus [16] = organism: Mus musculus; test: Antibacterial activity against mice infected with Staphylococcus aureus Smith.; format: functional
Mus musculus [17] = organism: Mus musculus; test: Antibacterial activity against mice infected with MRSA 5120 challenged with a dose of 7.6*10e7 cells/mouse; format: functional
Escherichia coli [18] = test: Antibacterial activity against Escherichia coli No.29; remark: listed apart in the source
Staphylococcus aureus [19] = test: Antibacterial activity against gram- positive Staphylococcus aureus Methicillin resistant Staphylococcus aureus 57; format: functional
Staphylococcus aureus [20] = test: Antibacterial activity against Staphylococcus aureus Smith
Pseudomonas aeruginosa [21] = test: Antibacterial activity against Pseudomonas aeruginosa ATCC 10145; format: functional
Escherichia coli [22] = test: Antibacterial activity against Escherichia coli NIHJ JC-2; format: functional
Staphylococcus aureus [23] = test: microbe, parasite or virus in culture
Description: Antibacterial activity against Methicillin resistant Staphylococcus aureus 5038

Mus musculus [24] = organism: Mus musculus; test: Antibacterial activity against mice infected with MRSA 5038; format: functional
Staphylococcus aureus [25] = test: microbe, parasite or virus in culture; remark: listed apart in the source
Description: Antibacterial activity against Methicillin resistant Staphylococcus aureus 5129

Staphylococcus aureus [26] = test: microbe, parasite or virus in culture; remark: listed apart in the source
Description: Antibacterial activity against Methicillin resistant Staphylococcus aureus 5120

Row | Compound | MIC (Staphylococcus aureus [8]) [µg/mL] | MIC (Escherichia coli [11]) [µg/mL] | MIC (Staphylococcus aureus [12]) [µg/mL] | MIC (Pseudomonas aeruginosa [13]) [µg/mL] | ED50 (Mus musculus [14]) [mg/kg] | MIC (Staphylococcus aureus [15]) [µg/mL] | MIC (Escherichia coli [18]) [µg/mL] | also measured
1 | C[n+]1ccc(SCC2=C(C(=O)O)N3C(=O)[C@@H](NC(=O)/C(=N/OC4CCCC4)c4csc(N)n4)[C@H]3CO2)cc1.O=S(=O)([O-])O | 3.13 | 0.39 | 0.05 | – | – | – | – | MIC (Staphylococcus aureus [1]): 0.39 µg/mL; MIC (Staphylococcus aureus [2]): 3.13 µg/mL; MIC (Escherichia coli [3]): 0.39 µg/mL; MIC (Staphylococcus aureus [4]): 6.25 µg/mL; MIC (Pseudomonas aeruginosa [5]): 3.13 µg/mL; ED50 (Mus musculus [6]): 3.4 mg/kg; ED50 (Mus musculus [7]): 0.08 mg/kg; ED50 (Mus musculus [9]): 3.91 mg/kg; ED50 (Mus musculus [10]): 0.09 mg/kg
2 | CO/N=C(/C(=O)N[C@@H]1C(=O)N2C(C(=O)O)=C(CSc3cc[n+](C)cc3)OC[C@H]12)c1csc(N)n1.O=S(=O)([O-])O | 50 | < 0.025 | 0.2 | 6.25 | – | – | – | –
3 | CCC(=O)C[n+]1ccc(SCC2=C(C(=O)O)N3C(=O)[C@@H](NC(=O)/C(=N/OC4CCCC4)c4csc(N)n4)[C@H]3CO2)cc1.O=S(=O)([O-])O | 6.25 | 0.39 | 0.2 | 6.25 | 0.15 | 0.2 | 0.39 | ED50 (Mus musculus [16]): 0.22 mg/kg; ED50 (Mus musculus [17]): 1 mg/kg
4 | CO/N=C(/C(=O)N[C@@H]1C(=O)N2C(C(=O)O)=C(CSc3cc[n+](CC(C)=O)cc3)OC[C@H]12)c1csc(N)n1.O=S(=O)([O-])O | 100 | < 0.025 | 0.39 | 12.5 | – | – | – | –
5 | CO[C@@]1(NC(=O)CSC(F)F)C(=O)N2C(C(=O)O)=C(CSc3nnnn3CCO)CO[C@@H]21 [FLOMOXEF] | – | 0.1 (≈ 0.201 µM) | 0.2 (≈ 0.403 µM) | > 100 | 0.43 | 0.39 (≈ 0.786 µM) | 0.1 (≈ 0.201 µM) | MIC (Staphylococcus aureus [19]): 25 µg/mL (≈ 50.4 µM)
6 | CN[C@H](CC(C)C)C(=O)N[C@H]1C(=O)N[C@@H](CC(N)=O)C(=O)N[C@H]2C(=O)N[C@H]3C(=O)N[C@H](C(=O)N[C@H](C(=O)O)c4cc(O)cc(O)c4-c4cc3ccc4O)[C@H](O)c3ccc(c(Cl)c3)Oc3cc2cc(c3O[C@@H]2O[C@H](CO)[C@@H](O)[C@H](O)[C@H]2O[C@H]2C[C@](C)(N)[C@H](O)[C@H](C)O2)Oc2ccc(cc2Cl)[C@H]1O [VANCOMYCIN] | – | – | – | – | – | – | – | MIC (Staphylococcus aureus [20]): 0.78 µg/mL (≈ 0.538 µM); MIC (Pseudomonas aeruginosa [21]): > 100 µg/mL; MIC (Escherichia coli [22]): > 100 µg/mL; MIC (Staphylococcus aureus [23]): 1.56 µg/mL (≈ 1.08 µM); ED50 (Mus musculus [24]): 2.7 mg/kg; MIC (Staphylococcus aureus [25]): 0.78 µg/mL (≈ 0.538 µM); MIC (Staphylococcus aureus [26]): 0.78 µg/mL (≈ 0.538 µM)
